Calls of active or inactive are those of the source. No cut-off for these calls is given here.
Columns and labels:
[1] = Displacement of [125I]TZDM from amyloid beta (1 to 40) aggregates after 2 hrs
Mus musculus [2] = species on record: Mus musculus; assay: Binding affinity to beta amyloid plaques in brain sections of TgC57 transgenic mouse transfected with APP and PS1 double mutant after 10 mins using thioflavin-S stain; type: tissue-based
[3] = Displacement of [125I]TZDM from amyloid beta (1 to 42) aggregates after 2 hrs
Mus musculus [4] = species on record: Mus musculus; assay: Binding affinity to beta amyloid plaques in brain sections of TgC57 transgenic mouse transfected with APP and PS1 double mutant after 30 mins by autoradiography in the presence of thioflavin-T; type: tissue-based; details: tested as the 125I-labelled form
Mus musculus [5] = species on record: Mus musculus; assay: Binding affinity to beta amyloid plaques in brain sections of TgC57 transgenic mouse transfected with APP and PS1 double mutant after 30 mins by autoradiography; type: tissue-based; details: tested as the 125I-labelled form
[6] = Binding affinity to amyloid beta aggregates

| Ki [1] [nM] | Activity (Mus musculus [2]) | Ki [3] [nM] | Activity (Mus musculus [4]) | Activity (Mus musculus [5]) | Ki [6] [nM] | SMILES |
| --- | --- | --- | --- | --- | --- | --- |
| 0.77 |  |  |  |  |  | CNc1ccc(-c2nc3ccc(O)cc3s2)cc1 [PITTSBURGH COMPOUND B UNLABELLED] |
| 0.57 | Active | 0.6 |  |  |  | Brc1ccc2nc(-c3ccc(-c4cccs4)s3)sc2c1 |
| 0.6 | Active | 2.09 |  |  |  | COc1ccc2nc(-c3ccc(-c4cccs4)s3)sc2c1 |
| 0.61 | Active | 0.11 | inactive | Active |  | COc1ccc2nc(-c3ccc(-c4ccc(I)s4)s3)sc2c1 |
| 2.2 |  | 0.9 |  |  |  | CN(C)c1ccc(-c2nc3ccc(I)cc3s2)cc1 |
|  |  |  |  |  | 10 | N#CC(C#N)=Cc1ccc(-c2ccc(-c3ccc(O)cc3)s2)s1 |

Reference: ChEMBL document CHEMBL1156337, “Synthesis and evaluation of novel benzothiazole derivatives based on the bithiophene structure as potential radiotracers for beta-amyloid plaques in Alzheimer's disease” (Bioorg Med Chem, 2010)
